Values belong to the compound of their own block, whether it stands above or below them.
Tests used:
A2780 (ovarian) cells = assay: Anti-proliferative activity, Cell-Titre luminescent viability assay; format: cell-based; conditions: Homo sapiens, 72 h exposure, Cell-Titre luminescent reagent
Experimental: (§1) The ability of compounds of the disclosure to inhibit the proliferation of cancer cells representative of non-small cell lung cancer and ovarian cancer (Table 1), and pancreatic cancer, colorectal cancer and prostate cancer (Table 2) was assessed. Briefly, a predetermined number of cells as calculated from cell growth assays for each of the cell lines employed were seeded into their respective culture medium (using ATCC culture parameters—http://www.atcc.org) and cultured for 24 h at 37° C. and 5% CO2 in 96-well culture plates. Once attached, each cell line was then exposed to various concentrations of each respective analogue (100, 30, 10, 3, 1 and 0.3 µM or 30, 10, 3, 1, 0.3 and 0.1 μM), cultured for a further 72 h and exposed to Cell-Titre luminescent reagent (100 μL/well) for a further 30 min. Luminescence was captured using an EnVision multilabel reader and the data for each analogue concentration compared against no treatment control. Cell viability was normalised to control (vehicle alone) and dose response curves, and half maximal effective concentration (EC50) values were determined using Graph Pad Prism 6 (nonlinear regression sigmoidal dose-response variable slope).

A549 (NSCLC) cells = assay: as above; format: cell-based; conditions: Homo sapiens, 72 h exposure, Cell-Titre luminescent reagent
Experimental: as §1

SMILES: O=C(Nc1ccc(F)c(Cl)c1)c1ccn(S(=O)(=O)c2ccc3[nH]ccc3c2)n1 [Compound 82, 1-((1H-indol-5-yl)sulfonyl)-N-(3-chloro-4-fluorophenyl)-1H-pyrazole-3-carboxamide]
- IC50 (A2780 (ovarian) cells): 10.5 µM
- IC50 (A549 (NSCLC) cells): 16.1 µM

SMILES: O=C(Nc1ccc(Cl)cc1)c1ccn(S(=O)(=O)c2ccc3[nH]ccc3c2)n1 [Compound 77, 1-((1H-indol-5-yl)sulfonyl)-N-(4-chlorophenyl)-1H-pyrazole-3-carboxamide]
- IC50 (A2780 (ovarian) cells): > 30 µM
- IC50 (A549 (NSCLC) cells): 19 µM

SMILES: Cc1ccc(NC(=O)c2ccn(S(=O)(=O)c3cc(C(N)=O)n(C)c3)c2)cc1O [Compound 19, 4-((3-((3-hydroxy-4-methylphenyl)carbamoyl)-1H-pyrrol-1-yl)sulfonyl)-1-methyl-1H-pyrrole-2-carboxamide]
- IC50 (A2780 (ovarian) cells): ≥ 100 µM
- IC50 (A549 (NSCLC) cells): > 100 µM

SMILES: CC(C)(C)c1ccc(NC(=O)c2ccn(S(=O)(=O)c3ccc4[nH]ccc4c3)n2)cc1F [Compound 114, 1-((1H-indol-5-yl)sulfonyl)-N-(4-(tert-butyl)-3-fluorophenyl)-1H-pyrazole-3-carboxamide]
- IC50 (A2780 (ovarian) cells): 10.5 µM
- IC50 (A549 (NSCLC) cells): 5.93 µM

SMILES: CCCc1ccc(NC(=O)c2ccn(S(=O)(=O)c3ccc4[nH]ccc4c3)n2)cc1F [Compound 110, 1-((1H-indol-5-yl)sulfonyl)-N-(3-fluoro-4-propylphenyl)-1H-pyrazole-3-carboxamide]
- IC50 (A2780 (ovarian) cells): 7.5 µM
- IC50 (A549 (NSCLC) cells): 8.06 µM

SMILES: CNC(=O)C1CCN(S(=O)(=O)c2cc(C(N)=O)n(C)c2)CC1 [Compound 32, 1-((5-carbamoyl-1-methyl-1H-pyrrol-3-yl)sulfonyl)-N-methylpiperidine-4-carboxamide]
- IC50 (A2780 (ovarian) cells): > 100 µM
- IC50 (A549 (NSCLC) cells): > 100 µM

SMILES: Cc1ccc(NC(=O)N2CCN(S(=O)(=O)c3ccc4c(c3)CCN4)CC2)cc1O [Compound 13, N-(3-hydroxy-4-methylphenyl)-4-(indolin-5-ylsulfonyl)piperazine-1-carboxamide]
- IC50 (A2780 (ovarian) cells): > 100 µM
- IC50 (A549 (NSCLC) cells): > 100 µM

SMILES: O=C(Nc1ccc2c(c1)OCO2)c1ccn(S(=O)(=O)c2ccc3[nH]ccc3c2)c1 [Compound 104, 1-((1H-indol-5-yl)sulfonyl)-N-(benzo[d][1,3]dioxol-5-yl)-1H-pyrrole-3-carboxamide]
- IC50 (A2780 (ovarian) cells): 8.92 µM
- IC50 (A549 (NSCLC) cells): > 30 µM

SMILES: Cn1cc(S(=O)(=O)N2CCC(C(=O)NC3CCCCC3)CC2)cc1C(N)=O [Compound 31, 1-((5-carbamoyl-1-methyl-1H-pyrrol-3-yl)sulfonyl)-N-cyclohexylpiperidine-4-carboxamide]
- IC50 (A2780 (ovarian) cells): > 100 µM
- IC50 (A549 (NSCLC) cells): > 100 µM

SMILES: O=C(Nc1cc(F)cc(F)c1)c1ccn(S(=O)(=O)c2ccc3[nH]ccc3c2)c1 [Compound 54, 1-((1H-indol-5-yl)sulfonyl)-N-(3,5-difluorophenyl)-1H-pyrrole-3-carboxamide]
- IC50 (A2780 (ovarian) cells): 8.2 µM
- IC50 (A549 (NSCLC) cells): 13.1 µM

SMILES: Cc1cc(F)cc(NC(=O)c2ccn(S(=O)(=O)c3ccc4[nH]ccc4c3)c2)c1 [Compound 56, 1-((1H-indol-5-yl)sulfonyl)-N-(3-fluoro-5-methylphenyl)-1H-pyrrole-3-carboxamide]
- IC50 (A2780 (ovarian) cells): 19.5 µM
- IC50 (A549 (NSCLC) cells): 17.9 µM

SMILES: CCc1ccccc1NC(=O)C1CCN(S(=O)(=O)c2ccc3[nH]ccc3c2)CC1 [Compound 61, 1-((1H-indol-5-yl)sulfonyl)-N-(2-ethylphenyl)piperidine-4-carboxamide]
- IC50 (A2780 (ovarian) cells): > 30 µM
- IC50 (A549 (NSCLC) cells): > 30 µM

SMILES: O=C(Nc1ccc(Cl)cn1)c1ccn(S(=O)(=O)c2ccc3[nH]ccc3c2)n1 [Compound 85]
- IC50 (A2780 (ovarian) cells): 21.3 µM
- IC50 (A549 (NSCLC) cells): 11.1 µM

SMILES: CCC(C)c1ccc(NC(=O)c2ccn(S(=O)(=O)c3ccc4[nH]ccc4c3)n2)cc1F (stereo not drawn) [Compound 106, 1-((1H-indol-5-yl)sulfonyl)-N-(4-(sec-butyl)-3-fluorophenyl)-1H-pyrazole-3-carboxamide]
- IC50 (A2780 (ovarian) cells): 9.85 µM
- IC50 (A549 (NSCLC) cells): 5.44 µM

SMILES: CCC(C)c1ccc(NC(=O)C2CCN(S(=O)(=O)c3cc(C(=O)N(C)C)n(C)c3)CC2)cc1 (stereo not drawn) [Compound 27, N-(4-(sec-butyl)phenyl)-1-((5-(dimethylcarbamoyl)-1-methyl-1H-pyrrol-3-yl)sulfonyl)piperidine-4-carboxamide]
- IC50 (A2780 (ovarian) cells): > 100 µM
- IC50 (A549 (NSCLC) cells): > 100 µM

SMILES: Cc1ccc(NC(=O)N2CCN(S(=O)(=O)c3cc(C(N)=O)n(C)c3)CC2)cc1O [Compound 10, 4-((5-carbamoyl-1-methyl-1H-pyrrol-3-yl)sulfonyl)-N-(3-hydroxy-4-methylphenyl)piperazine-1-carboxamide]
- IC50 (A2780 (ovarian) cells): > 100 µM
- IC50 (A549 (NSCLC) cells): > 100 µM

SMILES: CCC(C)c1ccc(NCC2CCN(S(=O)(=O)c3cc(C(N)=O)n(C)c3)CC2)cc1 (stereo not drawn) [Compound 33, 4-((4-(((4-(sec-butyl)phenyl)amino)methyl)piperidin-1-yl)sulfonyl)-1-methyl-1H-pyrrole-2-carboxamide]
- IC50 (A2780 (ovarian) cells): 12.1 µM
- IC50 (A549 (NSCLC) cells): > 100 µM

SMILES: Cn1cc(S(=O)(=O)N2CCC(C(=O)Nc3ccccc3)CC2)cc1C(N)=O [Compound 30, 1-((5-carbamoyl-1-methyl-1H-pyrrol-3-yl)sulfonyl)-N-phenylpiperidine-4-carboxamide]
- IC50 (A2780 (ovarian) cells): > 100 µM
- IC50 (A549 (NSCLC) cells): > 100 µM

More lines, now with the values ahead:

- IC50 (A2780 (ovarian) cells): > 30 µM
- IC50 (A549 (NSCLC) cells): > 30 µM
SMILES: CCC(C)c1ccc(CCNC(=O)c2ccn(S(=O)(=O)c3ccc(C(C)(C)C)cc3)c2)cc1 (stereo not drawn) [Compound 88, N-(4-(sec-butyl)phenethyl)-1-((4-(tert-butyl)phenyl)sulfonyl)-1H-pyrrole-3-carboxamide]

- IC50 (A2780 (ovarian) cells): 4.32 µM
- IC50 (A549 (NSCLC) cells): 7.92 µM
SMILES: CCC(C)c1ccc(NC(=O)c2ccn(S(=O)(=O)c3ccc4[nH]ccc4c3)c2)cc1F (stereo not drawn) [Compound 94, 1-((1H-indol-5-yl)sulfonyl)-N-(4-(sec-butyl)-3-fluorophenyl)-1H-pyrrole-3-carboxamide]

- IC50 (A2780 (ovarian) cells): > 30 µM
- IC50 (A549 (NSCLC) cells): 3.45 µM
SMILES: O=C(Nc1ccc(F)cn1)c1ccn(S(=O)(=O)c2ccc3[nH]ccc3c2)c1 [Compound 72]

- IC50 (A2780 (ovarian) cells): 4.53 µM
- IC50 (A549 (NSCLC) cells): 5.17 µM
SMILES: CC(C)(C)c1ccc(NC(=O)c2ccn(S(=O)(=O)c3ccc4[nH]ccc4c3)c2)cc1F [Compound 101, 1-((1H-indol-5-yl)sulfonyl)-N-(4-(tert-butyl)-3-fluorophenyl)-1H-pyrrole-3-carboxamide]

- IC50 (A2780 (ovarian) cells): 26.7 µM
- IC50 (A549 (NSCLC) cells): 18.6 µM
SMILES: O=C(Nc1ccc(Cl)nc1)c1ccn(S(=O)(=O)c2ccc3[nH]ccc3c2)c1 [Compound 75, 1-((1H-indol-5-yl)sulfonyl)-N-(6-chloropyridin-3-yl)-1H-pyrrole-3-carboxamide]

- IC50 (A2780 (ovarian) cells): > 30 µM
- IC50 (A549 (NSCLC) cells): > 30 µM
SMILES: Cc1cccc(F)c1NC(=O)c1ccn(S(=O)(=O)c2ccc3[nH]ccc3c2)c1 [Compound 55, 1-((1H-indol-5-yl)sulfonyl)-N-(2-fluoro-6-methylphenyl)-1H-pyrrole-3-carboxamide]

- IC50 (A2780 (ovarian) cells): 8.31 µM
- IC50 (A549 (NSCLC) cells): 10.7 µM
SMILES: CCCc1ccc(NC(=O)c2ccn(S(=O)(=O)c3ccc4[nH]ccc4c3)c2)cc1F [Compound 97, 1-((1H-indol-5-yl)sulfonyl)-N-(3-fluoro-4-propylphenyl)-1H-pyrrole-3-carboxamide]

- IC50 (A2780 (ovarian) cells): 13.6 µM
- IC50 (A549 (NSCLC) cells): 15.9 µM
SMILES: O=C(Nc1ccc(Cl)cc1)c1ccn(S(=O)(=O)c2ccc3[nH]ccc3c2)c1 [Compound 66, 1-((1H-indol-5-yl)sulfonyl)-N-(4-chlorophenyl)-1H-pyrrole-3-carboxamide]

- IC50 (A2780 (ovarian) cells): > 30 µM
- IC50 (A549 (NSCLC) cells): > 30 µM
SMILES: CC(C)(C)c1ccc(S(=O)(=O)n2ccc(C(=O)NCCc3ccc(C(F)(F)F)cc3)c2)cc1 [Compound 90, 1-((4-(tert-butyl)phenyl)sulfonyl)-N-(4-(trifluoromethyl)phenethyl)-1H-pyrrole-3-carboxamide]

— patent publication US12528792B2, “Sulfonamide compounds and the use thereof in the treatment of cancer” (TROBIO THERAPEUTICS PTY LTD, priority 2019, dated 2026)
